Laboratory results taken from ChEMBL document CHEMBL1122460, “Preparation of some 10-[3-(dimethylamino)-1-propyl]-10H-pyrazino[2,3-b][1,4] benzothiazines as potential neuroleptics” (J Med Chem, 1983).

Key:
Format in all cases: protein assay
[1] = molecular target: Dopamine receptor; test: Tested for displacement of rat caudate dopamine receptors by using [3H]spiperone as radioligand
[2] = molecular target: Dopamine receptor; test: Tested for displacement of rat striatal dopamine receptors by using [3H]apomorphine as radioligand
[3] = molecular target: Dopamine receptor; test: Tested for displacement of rat caudate dopamine receptors by using [3H]apomorphine as radioligand

IC50 [1] [nM]	IC50 [2] [nM]	IC50 [3] [nM]	Structure (SMILES)
9166	5968	–	CN(C)CCCN1c2cc(Cl)ccc2Sc2nccnc21
553	–	1222	CN(C)CCCN1c2ccccc2Sc2nc(Cl)cnc21
62.1	–	67.3	CN(C)CCCN1c2ccccc2Sc2ncc(Cl)nc21
382	103	–	Cc1cnc2c(n1)N(CCCN(C)C)c1ccccc1S2
